Data taken from ChEMBL document CHEMBL1132333, “Synthesis and enantiomeric separation of 2-phthalimidino-glutaric acid analogues: potent inhibitors of tumor metastasis” (1999).

System: Mus musculus
Test: Compound (0.4 mmol/Kg) was evaluated for its ability to inhibit B16BL6 pulmonary metastasis in mice. The number of lung metastases of treated (T) and nontreated or control (C) is expressed as ratio, T/C.
Format: functional

Structure (SMILES) | T/C
CC(CCC(=O)O)(C(=O)O)N1Cc2ccccc2C1=O (configuration not stated) | 0.25
C[C@@](CCC(=O)O)(C(=O)O)N1Cc2ccccc2C1=O | 0.7
O=C(O)CCC(C(=O)O)N1Cc2ccc(O)cc2C1=O (configuration not stated) | 0.9
O=C(O)CCC(C(=O)O)N1Cc2ccccc2C1=O (configuration not stated) | 0.2
O=C(O)CCC(C(=O)O)N1Cc2cccc(O)c2C1=O (configuration not stated) | 0.95
C[C@](CCC(=O)O)(C(=O)O)N1Cc2ccccc2C1=O | 0.15
O=C1CCC(N2C(=O)c3ccccc3C2=O)C(=O)N1 (configuration not stated) [THALIDOMIDE] | 0.9
